From the NIST ThermoML archive (doi:10.1016/j.fluid.2014.04.027)

Test: xn = mol fraction of the nth substance listed
Conditions: 100 kPa, Liquid, Alternating current cell with electrodes

CCCCCCCCCCCCOS(=O)(=O)[O-].[Na+] [sodium dodecyl sulfate] + O
electrical conductivity [S/m]
Conditions	298.15 K	308.15 K	318.15 K
x1 = 6.348e-05	0.024	0.0249	0.0283
x1 = 6.643e-05	0.0245	0.0255	0.029
x1 = 6.967e-05	0.0252	0.0264	0.0298
x1 = 7.324e-05	0.0261	0.0273	0.0306
x1 = 7.72e-05	0.0269	0.0282	0.0317
x1 = 8.16e-05	0.0278	0.0292	0.0329
x1 = 8.4e-05	0.0284	0.0298	0.0334
x1 = 8.655e-05	0.0291	0.0304	0.034
x1 = 8.925e-05	0.0297	0.0311	0.0347
x1 = 9.213e-05	0.0305	0.0317	0.0355
x1 = 9.519e-05	0.0311	0.0323	0.0362
x1 = 9.847e-05	0.0317	0.0332	0.0371
x1 = 0.000102	0.0327	0.0339	0.038
x1 = 0.0001058	0.0335	0.0349	0.0389
x1 = 0.0001098	0.0345	0.0359	0.04
x1 = 0.0001142	0.0353	0.037	0.0412
x1 = 0.000119	0.0365	0.0382	0.0424
x1 = 0.0001241	0.0375	0.0394	0.0436
x1 = 0.0001298	0.0388	0.0408	0.045
x1 = 0.0001359	0.0401	0.0423	0.0465
x1 = 0.0001427	0.0414	0.0439	0.0481
x1 = 0.0001502	–	0.0455	0.0498
x1 = 0.0001586	–	–	0.052
